Format in all cases: biochemical
One experiment has as its target T1, caspase 1 (Homo sapiens, UniProt P29466).
T1 construct: purchased BIOMOL Research Laboratories (Plymouth Meeting, Pa.)
T1 sequence (P29466 120-297 limits assumed): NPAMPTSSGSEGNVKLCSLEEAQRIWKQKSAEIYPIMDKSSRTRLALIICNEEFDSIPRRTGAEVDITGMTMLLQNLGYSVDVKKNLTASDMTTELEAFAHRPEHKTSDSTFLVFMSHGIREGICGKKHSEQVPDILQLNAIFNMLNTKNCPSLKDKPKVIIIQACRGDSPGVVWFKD
T1 sequence (P29466 317-404 limits assumed): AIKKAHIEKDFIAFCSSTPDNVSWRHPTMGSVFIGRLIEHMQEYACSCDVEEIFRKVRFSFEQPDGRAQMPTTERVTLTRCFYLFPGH
Kind of experiment: Enzyme inhibition assay, caspase 1 (fluorogenic Ac-YVAD-AMC).

Experiment [1] addresses T2, caspase-3 (Homo sapiens, UniProt P42574).
T2 construct: purchased Sigma-Aldrich (St. Louis, Mo.)
T2 sequence (P42574 29-175 limits assumed): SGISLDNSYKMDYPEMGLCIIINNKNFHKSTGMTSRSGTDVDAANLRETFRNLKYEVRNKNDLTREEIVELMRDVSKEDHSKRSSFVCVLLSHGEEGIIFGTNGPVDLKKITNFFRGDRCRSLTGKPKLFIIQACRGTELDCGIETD
T2 sequence (P42574 176-277 limits assumed): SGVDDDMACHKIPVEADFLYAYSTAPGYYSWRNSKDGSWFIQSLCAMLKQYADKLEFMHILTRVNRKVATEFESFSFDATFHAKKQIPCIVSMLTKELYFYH
The experiment is described as follows: Enzyme inhibition assay, caspase 3 (fluorogenic Ac-DEVD-AMC).

The target in a further experiment is T3, caspase 6 (Homo sapiens, UniProt P55212).
T3 construct: purchased Sigma-Aldrich (St. Louis, Mo.)
T3 sequence (P55212 24-179 limits assumed): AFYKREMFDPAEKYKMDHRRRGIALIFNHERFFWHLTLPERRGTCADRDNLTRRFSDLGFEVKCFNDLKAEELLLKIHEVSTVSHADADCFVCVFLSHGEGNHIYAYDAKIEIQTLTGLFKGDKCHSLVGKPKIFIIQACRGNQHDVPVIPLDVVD
T3 sequence (P55212 194-293 limits assumed): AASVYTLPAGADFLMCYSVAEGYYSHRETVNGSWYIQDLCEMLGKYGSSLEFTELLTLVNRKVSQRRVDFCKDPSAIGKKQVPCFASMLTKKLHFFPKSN
The experiment is described as follows: Enzyme inhibition assay, caspase 6 (fluorogenic Ac-VEID-AMC).

The next experiment deals with T4, caspase 7 (Homo sapiens, UniProt P55210).
T4 construct: purchased Sigma-Aldrich (St. Louis, Mo.)
T4 sequence (P55210 24-198 limits assumed): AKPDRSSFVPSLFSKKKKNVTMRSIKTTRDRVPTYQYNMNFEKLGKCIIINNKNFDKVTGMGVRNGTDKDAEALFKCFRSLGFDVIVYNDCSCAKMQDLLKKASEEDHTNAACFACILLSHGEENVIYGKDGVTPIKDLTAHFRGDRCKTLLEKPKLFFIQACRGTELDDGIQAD
T4 sequence (P55210 207-303 limits assumed): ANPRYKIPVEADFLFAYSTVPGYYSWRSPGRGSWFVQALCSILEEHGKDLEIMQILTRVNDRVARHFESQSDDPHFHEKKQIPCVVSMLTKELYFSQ
Kind of experiment: Enzyme inhibition assay, caspase 7 (fluorogenic Ac-DEVD-AMC).

In another experiment the target is T5, caspase 8 (Homo sapiens, UniProt Q14790).
T5 construct: purchased Sigma-Aldrich (St. Louis, Mo.)
T5 sequence (Q14790 217-374 limits assumed): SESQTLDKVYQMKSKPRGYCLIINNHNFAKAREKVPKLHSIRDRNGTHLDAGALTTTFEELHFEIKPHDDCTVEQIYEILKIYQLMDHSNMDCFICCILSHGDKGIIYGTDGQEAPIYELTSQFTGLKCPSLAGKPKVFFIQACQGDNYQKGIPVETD
T5 sequence (Q14790 385-479 limits assumed): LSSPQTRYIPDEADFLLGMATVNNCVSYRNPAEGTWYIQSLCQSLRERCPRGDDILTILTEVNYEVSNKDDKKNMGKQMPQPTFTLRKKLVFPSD
Kind of experiment: Enzyme inhibition assay, caspase 8 (fluorogenic Ac-IETD-AMC).

Experiment [2] deals with T2, caspase-3. The experiment is described as follows: Enzyme kinetic studies versus Ac-DEVD-AMC. How it is done: Enzyme Kinetic Studies. The inhibition profile for compound 21c was determined for caspase-3 in the assay buffer. The concentration of Ac-DEVD-AMC was varied from 6.25 to 100 μM, and the concentration of 21c was varied from 0 to 20 nM. The kinetic parameters of 21c were obtained by fitting initial-rate data to
[formula] where v is the observed velocity, S is the substrate concentration, Vm is the velocity at saturating substrate, Km is the Michaelis constant of the substrate, I is the inhibitor concentration, and Ki is the dissociation constant of the inhibitor from the E·I complex. The data were analyzed using GraFit 4.0 (Erithacus Software, Staines, U.K.)
Kinetic studies were also conducted in order to determine the mechanism of inhibition of caspase-3 activity by compound 21c.

For experiment [3], the target named is T2, caspase-3. Kind of experiment: Reversibility assay (gel filtration). On the technique in general: SEC sorts molecules by how far they enter the pores of the column.
Experimental: Then the mixtures were run through the gel filtration column (Bio-Spin 6 Tris columns from Bio-Rad Laboratories, Hercules, Calif.) to remove the free compounds according to the manufacture's instruction. Briefly, 50 μl of the incubation mixture was loaded on the top of the column. The column was then centrifuged at 1000×g for 4 min at 4° C. The resulting elutant was designated as elutant A (for no treatment sample), B (for Z-DEVD-FMK-treated sample) or C (for 30d-treated sample). The elutant was assayed for caspase 3 activity as described in enzyme inhibition assays above. Briefly, 40 μl of the elutant, 60 μl assay buffer and 100 μl substrate (10 μM Ac-DEVD-AMC) were incubated for 1 hour at 37° C. Amount of AMC released was determined using a Victor microplate fluorometer. The recovered caspase-3 activity after gel filtration (%) was calculated.

Here are results for two compounds from US8329686B2, “Isatin analogues and uses therefor” (Washington University, priority 2006, dated 2012).

Like-named read-outs stand apart in the source and are kept apart here.

Experimental for caspase 1: (§1) Enzyme Assays. Inhibition of recombinant human caspase-3 and other caspases by the isatin analogues was assessed using a fluorometric assay by measuring the accumulation of a fluorogenic product, 7-amino-4-methylcoumarin (7-AMC).
(§2) Enzyme Inhibition Assays. Recombinant human caspases (3, 6, 7, and 8) and their peptide-specific substrates (Ac-DEVDAMC, Ac-VEID-AMC, Ac-DEVD-AMC, and Ac-IETD-AMC, respectively) were purchased from Sigma-Aldrich (St. Louis, Mo.) with the exception of caspase 1 and its substrate (Ac-YVAD-AMC), which were obtained from BIOMOL Research Laboratories (Plymouth Meeting, Pa.). The enzymatic activity of caspases was determined by measuring the accumulation of the fluorogenic product 7-amino-4-methylcoumarin (AMC). All assays were prepared in 96-well format at a volume of 210 μL per well and consisted of 100 mM Na+ HEPES (pH 7.4), 10% sucrose, 100 mM NaCl, 0.1% CHAPS, 5 mM 2-mercaptoethanol, 2 mM EDTA, 10 μM Ac-YVAD-AMC (caspase 1); 20 mMNa^+ HEPES (pH 7.4), 10% sucrose, 100 mMNaCl, 0.1% CHAPS, 2 mM EDTA, 10 μM Ac-DEVD-AMC (caspase 3); 20 mM Na^+ HEPES (pH 7.4), 10% sucrose, 100 mM NaCl, 0.1% CHAPS, 2 mM EDTA, 10 μM Ac-VEID-AMC (caspase 6); 20 mM Na+ HEPES (pH 7.4), 100 mM NaCl, 10% sucrose, 0.1% CHAPS, 5 mM 2-mercaptoethanol, 2 mM EDTA, 10 μM Ac-DEVD-AMC (caspase 7); 20 mM Na+ HEPES (pH 7.4), 10% sucrose, 100 mM NaCl, 0.1% CHAPS, 2 mM EDTA, 10 μM Ac-IETD-AMC (caspase 8).
(§3) Recombinant caspases were first assayed to determine the optimal concentration for each experiment. Optimal concentrations were based in the linear range of the enzyme activation curves. Peptide inhibitors with known IC50 values were tested together with the compounds as a control for each caspase assay. […] Peptide and nonpeptide inhibitors were dissolved in DMSO, and a 2 serial dilution was performed prior to screening in order to obtain desired concentrations. 10 μL was added to each well containing 100 μL caspase solution and allowed to incubate on ice for 30 min. […] The final concentration of DMSO in all wells was 5% of the total volume. In caspase-1 and caspase-7 assays, 10 mM 2-mercaptoethanol was added to the substrate solution for full activation of the enzymes.
(§4) Compounds were tested in duplicate, and IC50 curves were calculated for all inhibitors assayed. Final IC50s were the average of three independent experiments.
Experimental for caspase 7: as §1, §2, §3, §4
Experimental for caspase 8: as §1, §2, §3, §4

The term IC50 denotes the concentration that gives 50% inhibition. Usually Ki stands for a measure of affinity in units of concentration, obtained from inhibition or displacement. For the compound `COc1ccc(CN2C(=O)C(=O)c3cc(S(=O)(=O)N4CCCC4COc4cccnc4)ccc32)cc1` (centres unmarked) [Compound 21c, 1-(4-Methoxybenzyl)-5-(2-(pyridin-3-yl-oxymethyl)-pyrrolidine-1-sulfonyl)-1H-indole-2,3-dione], the IC50 is above 10000 nM on caspase 1 (Table 6, read-out: IC50 (nM) caspase-1); 3.9 nM at caspase-3 [1] (read-out: IC50 for caspase-3); above 5000 nM on caspase 6 (Table 6, read-out: IC50 (nM) caspase-6); 15.1 ± 1.2 nM on caspase 7 (Table 6, read-out: IC50 (nM) caspase-7); above 50000 nM at caspase 8 (Table 6, read-out: IC50 (nM) caspase-8). Further, the inhibition constant (Ki) on caspase-3 [2] (competitive versus Ac-DEVD-AMC, read-out: calculated Ki value) is 0.0044 µM. Moreover, on caspase-3 [2] (versus Ac-DEVD-AMC), the “mechanism of inhibition of caspase-3 activity” value was “competitive inhibition”.

In the case of `COc1ccc(CN2C(=O)C(=C(C#N)C#N)c3cc(S(=O)(=O)N4CCCC4COc4cccnc4)ccc32)cc1` (centres unmarked) [Compound 30d, 2-{1-(4-Methoxy-benzyl)-2-oxo-5-[2-(pyridin-3-yloxymethyl)-pyrrolidine-1-sulfonyl]-1,2-dihydro-indol-3-yl-idene}-malononitrile], the IC50 on caspase 1 was 3900 nM; at caspase 1 (IC50 (nM) Casp-1, Table 7), 3900 ± 530 nM; on caspase 1 (read-out: IC50 for caspase-1) it was 2700 to 3200 nM; against caspase-3 [1] (IC50 (nM) Casp-3, Table 7), 7.8 ± 1.5 nM; on caspase-3 [1] (IC50 (nM) Caspase 3, Table 2), 7.8 ± 1.5 nM; at caspase-3 [1] (IC50 for caspase-3), 7.8 nM. Besides, the IC50 was 610 ± 113 nM against caspase 6; 515 to 770 nM at caspase 6 (read-out: IC50 for caspase-6); 29.6 ± 1.4 nM against caspase 7 (IC50 (nM) Casp-7, Table 7); 29.6 ± 1.4 nM at caspase 7 (IC50 (nM) Caspase 7, Table 2); 15.1 nM at caspase 7 (read-out: IC50 for caspase-7); above 50000 nM on caspase 8 (Table 2, read-out: IC50 (nM) Caspase 8). The IC50 at caspase 8 (Table 7, read-out: IC50 (nM) Casp-8) was above 50000 nM; at caspase 8 (read-out: IC50 for caspase-8), above 50000 nM. Besides, the “caspase 3 activity after incubation with inhibitor” value on caspase-3 [3] (3 μM, 1 hour on ice, before gel filtration) is “fully inhibited”. Also, at caspase-3 [3] (elutant compared to untreated elutant A), the “recovered caspase-3 activity after gel filtration” value is “full caspase 3 activity”.
